Tests used:
[1] = tested on: Total ATXN3 (tATXN3) protein; assay: Endogenous Total ATXN3 (tATXN3) Protein Assay (MSD immunoassay of cell lysates); type: cell-based; details: average IC50, total ATXN3 protein in cell lysate after 48 h with compound (Table 1)
Procedure: Endogenous Total ATXN3 (tATXN3) Protein Assay
Meso Scale Discovery (MSD) 96-well or 384-well plates were coated overnight at 4° C. with Ataxin 3 mouse monoclonal antibody (Invitrogen, MA3-082) at a concentration of 0.5 μg/mL in PBS (30 μL per well). Plates were then washed three times with 300 μL wash buffer (0.05% TWEEN®-20, polyethylene glycol sorbitan monolaurate, in PBS) and blocked (Meso Scale Diagnostics, R93BA-1; 5% BSA in PBS) for 2 h at RT with rotational shaking and then washed three times with wash buffer.
(§1) Test compounds were serially diluted 3.16-fold in 100% DMSO to generate a 7-point concentration curve. Aliquots of 0.5 μL of diluted compounds were transferred to a 96-well flat bottom plate by a liquid handler. An aliquot of 0.5 μL DMSO was also transferred to separate wells and used as controls. Duplicate samples were set up for each compound concentration and for the DMSO control.
Cells were thawed and incubated in cell culture media (DMEM, 10% FBS, and 1% antibiotic cocktail) for 72 h. Cells were trypsinized, counted, and re-suspended to a concentration of 100,000 cells/mL in cell culture media. A 100 μL aliquot of the cell suspensions were plated at 10,000 cells per well in the compound containing 96 well microtiter plate and incubated for in a cell culture incubator (37° C., 5% CO2, 100% relative humidity). After 48 h, the medium was removed and 50-100 μL of lysis buffer (Meso Scale Diagnostics, R60TX-2) containing 1× halt protease inhibitor cocktail of (Thermo Scientific, Halt™ Protease Inhibitor Cocktail, 78430) per well was added to cells to provide a “cell lysate”. The plate was placed on a shaker at 4° C. for 30 minutes, then stored at −80° C.
Cell lysate samples (25 μL) were transferred to the antibody-coated MSD plate and incubated overnight at 4° C. After removal of the lysates, the plate was washed three times with wash buffer, and 25 μL of Ataxin 3 recombinant rabbit monoclonal antibody (Invitrogen, #702788) secondary antibody (diluted to 0.25 μg/mL in 0.05% TWEEN®-20 in blocking buffer) was added to each well and incubated with shaking for 1-2 h at room temperature. Following incubation with the secondary antibody, the wells were rinsed with wash buffer and then 25 μL of Anti Rabbit Antibody Goat SULFO-TAG Labeled (Meso Scale Diagnostics, R32AB-1) detecting antibody (diluted to […] in 0.05% TWEEN®-20 in blocking buffer) was added to each well and incubated with shaking for 1 h at room temperature. After rinsing three times with wash buffer, 150 μL of Read Buffer T with surfactant (tris-based buffer containing tripropylamine, Meso Scale Diagnostics, R92TC-1) were added to each empty well, and the plate was imaged on a SI 6000 imager (MSD) according to manufacturers' instructions provided for 96- or 384-well plates.
(§2) An average IC50>1 μM is indicated by one star (*), between >0.3 μM and ≤1 μM is indicated by two stars (**), between >0.03 μM and ≤0.3 μM is indicated by three stars (***), and ≤0.03 μM is indicated by four stars (****).

ATXN3 pre-mRNA = assay: RT-qPCR Assay to Quantify Exon 4 Skipping in ATXN3 pre-mRNA in Cells; type: cell-based; details: percent exon 4 skipping in ATXN3 pre-mRNA, RT-qPCR of cell lysates; average IC50
Procedure: RT-qPCR Assay to Quantify Exon 4 Skipping in ATXN3 pre-mRNA in Cells
as §1
Cells were thawed and incubated in cell culture media (DMEM, 10% FBS, and 1% antibiotic cocktail) for 72 h. Cells were trypsinized, counted, and re-suspended to a concentration of 100,000 cells/mL in cell culture media. A 100 μL aliquot of the cell suspensions were plated at 10,000 cells per well in the compound containing 96 well microtiter plate and incubated for in a cell culture incubator (37° C., 5% CO2, 100% relative humidity).
After 24 h, media was aspirated from the cells and 50 μL of the RCL2 lysis buffer (10 mM Tris-HCL pH 7.4, 150 mM NaCl, 0.33% IGEPAL® CA-630) was added to each well and incubated at RT for 1 min. Chilled nuclease free water (50 μL per well) was added and the plates were immediately transferred on ice. After 1 min on ice, plates were frozen at −80° C. overnight.
Preparation of RT-qPCR Reaction Mixture:
An aliquot of 2 μL/well of the cell lysates was transferred using the liquid handler to the Armadillo 384-Well PCR plate containing 8 μL/well of the RT-qPCR reaction mixture that was prepared as detailed above. The plates were then sealed with MicroAmp™ Optical Adhesive Film followed by spinning down for 1 min and placed in the CFX384 thermocycler (BioRad).
The RT-qPCR was carried out at the following temperatures for the indicated time: • Step 1: 48° C. (30 min) • Step 2: 95° C. (10 min) • Step 3: 95° C. (15 sec) • Step 4: 60° C. (1 min); then, repeated Steps 3 and 4 for a total of 40 cycles.
The percent exon 4 skipping was calculated for each dose of compound treatment using Equations 1 and 2.
Data were fit to a dose response curve and the IC50 was interpolated using XLfit® statistical and curve fitting package.
as §2

Substance | IC50 [1] [nM] | IC50 (ATXN3 pre-mRNA) [nM]
2-((1R,6R)-6-aminocyclohex-3-en-1-yl-2,2,3,4,5,5-d6)-3,5-dichloro-N-(furan-2-ylmethyl)thieno[3,2-b]pyridin-7-amine and 2-((1S,6S)-6-aminocyclohex-3-en-1-yl-2,2,3,4,5,5-d6)-3,5-dichloro-N-(furan-2-ylmethyl)thieno[3,2-b]pyridin-7-amine [Compound 180] | ≤ 30 | ≤ 30
2-((1R,6R)-6-aminocyclohex-3-en-1-yl-2,2,3,4,5,5-d6)-5-chloro-N-(furan-2-ylmethyl)-3-methylthieno[3,2-b]pyridin-7-amine and 2-((1S,6S)-6-aminocyclohex-3-en-1-yl-2,2,3,4,5,5-d6)-5-chloro-N-(furan-2-ylmethyl)-3-methylthieno[3,2-b]pyridin-7-amine [Compound 171] | ≤ 30 | ≤ 30
2-((1R,6R)-6-aminocyclohex-3-en-1-yl-2,2,3,4,5,5-d6)-N-benzyl-5-chloro-3-methylthieno[3,2-b]pyridin-7-amine and 2-((1S,6S)-6-aminocyclohex-3-en-1-yl-2,2,3,4,5,5-d6)-N-benzyl-5-chloro-3-methylthieno[3,2-b]pyridin-7-amine [Compound 278] | 30 to 300 | 30 to 300
2-((1R,6S)-6-amino-2,2-difluorocyclohexyl)-3-bromo-5-chloro-N-(thiophen-2-ylmethyl)thieno[3,2-b]pyridin-7-amine and 2-((1S,6R)-6-amino-2,2-difluorocyclohexyl)-3-bromo-5-chloro-N-(thiophen-2-ylmethyl)thieno[3,2-b]pyridin-7-amine [Compound 269] | 30 to 300 | 30 to 300
2-((1R,6S)-6-amino-2,2-difluorocyclohexyl)-3-bromo-N-((E)-but-2-en-1-yl)-5-chlorothieno[3,2-b]pyridin-7-amine and 2-((1S,6R)-6-amino-2,2-difluorocyclohexyl)-3-bromo-N-((E)-but-2-en-1-yl)-5-chlorothieno[3,2-b]pyridin-7-amine [Compound 425] | > 1000 | 300 to 1000
2-((1R,6S)-6-amino-2,2-difluorocyclohexyl)-3-bromo-N-(but-2-yn-1-yl)-5-chlorothieno[3,2-b]pyridin-7-amine and 2-((1S,6R)-6-amino-2,2-difluorocyclohexyl)-3-bromo-N-(but-2-yn-1-yl)-5-chlorothieno[3,2-b]pyridin-7-amine [Compound 370] | 30 to 300 | 30 to 300
2-((1R,6S)-6-amino-2,2-difluorocyclohexyl)-N-(but-2-yn-1-yl)-5-chloro-3-iodothieno[3,2-b]pyridin-7-amine and 2-((1S,6R)-6-amino-2,2-difluorocyclohexyl)-N-(but-2-yn-1-yl)-5-chloro-3-iodothieno[3,2-b]pyridin-7-amine [Compound 383] | 30 to 300 | 30 to 300
2-((1S,2S)-2-aminocyclohexyl)-5-chloro-3-(fluoromethyl)-N-(thiophen-2-ylmethyl)thieno[3,2-b]pyridin-7-amine and 2-((1R,2R)-2-aminocyclohexyl)-5-chloro-3-(fluoromethyl)-N-(thiophen-2-ylmethyl)thieno[3,2-b]pyridin-7-amine [Compound 400] | 300 to 1000 | 300 to 1000
2-((1S,6S)-6-aminocyclohex-3-en-1-yl)-3-bromo-5-chloro-N-(thiophen-2-ylmethyl)thieno[3,2-b]pyridin-7-amine and 2-((1R,6R)-6-aminocyclohex-3-en-1-yl)-3-bromo-5-chloro-N-(thiophen-2-ylmethyl)thieno[3,2-b]pyridin-7-amine [Compound 256] | 30 to 300 | ≤ 30
2-((1S,6S)-6-aminocyclohex-3-en-1-yl)-5-chloro-N-(thiophen-2-ylmethyl)thieno[3,2-b]pyridin-7-amine [Compound 448] | > 1000 | 30 to 300
2-((2R,3R)-3-amino-5-methylenetetrahydro-2H-pyran-2-yl)-3-bromo-5-chloro-N-(thiophen-2-ylmethyl)thieno[3,2-b]pyridin-7-amine and 2-((2S,3S)-3-amino-5-methylenetetrahydro-2H-pyran-2-yl)-3-bromo-5-chloro-N-(thiophen-2-ylmethyl)thieno[3,2-b]pyridin-7-amine [Compound 259] | 30 to 300 | 30 to 300
2-((2R,3R)-3-aminobicyclo[3.2.1]octan-2-yl)-3-bromo-5-chloro-N-(thiophen-2-ylmethyl)thieno[3,2-b]pyridin-7-amine and 2-((2S,3S)-3-aminobicyclo[3.2.1]octan-2-yl)-3-bromo-5-chloro-N-(thiophen-2-ylmethyl)thieno[3,2-b]pyridin-7-amine [Compound 85] | > 1000 | > 1000
2-((2R,3R)-3-aminotetrahydro-2H-pyran-2-yl)-3-bromo-5-chloro-1-(difluoromethyl)-N-(thiophen-2-ylmethyl)-1H-pyrrolo[3,2-b]pyridin-7-amine and 2-((2S,3S)-3-aminotetrahydro-2H-pyran-2-yl)-3-bromo-5-chloro-1-(difluoromethyl)-N-(thiophen-2-ylmethyl)-1H-pyrrolo[3,2-b]pyridin-7-amine [Compound 224] | ≤ 30 | ≤ 30
2-((2R,3R)-3-aminotetrahydro-2H-pyran-2-yl)-5-chloro-3-iodo-N-(thiophen-2-ylmethyl)thieno[3,2-b]pyridin-7-amine and 2-((2S,3S)-3-aminotetrahydro-2H-pyran-2-yl)-5-chloro-3-iodo-N-(thiophen-2-ylmethyl)thieno[3,2-b]pyridin-7-amine [Compound 266] | 30 to 300 | 30 to 300
2-((2R,3R)-3-aminotetrahydro-2H-pyran-2-yl)-5-chloro-N-(2-fluorobenzyl)thieno[3,2-b]pyridin-7-amine and 2-((2S,3S)-3-aminotetrahydro-2H-pyran-2-yl)-5-chloro-N-(2-fluorobenzyl)thieno[3,2-b]pyridin-7-amine [Compound 28] | > 1000 | > 1000
2-((2R,3R)-3-aminotetrahydro-2H-pyran-2-yl)-5-chloro-N-(furan-2-ylmethyl)-3-methylthieno[3,2-b]pyridin-7-amine and 2-((2S,3S)-3-aminotetrahydro-2H-pyran-2-yl)-5-chloro-N-(furan-2-ylmethyl)-3-methylthieno[3,2-b]pyridin-7-amine [Compound 25] | 30 to 300 | 30 to 300
2-((2R,3R)-3-aminotetrahydro-2H-pyran-2-yl)-N-benzyl-5-chlorothieno[3,2-b]pyridin-7-amine and 2-((2S,3S)-3-aminotetrahydro-2H-pyran-2-yl)-N-benzyl-5-chlorothieno[3,2-b]pyridin-7-amine [Compound 26] | 300 to 1000 | 300 to 1000

— US20250382305A1 (PTC THERAPEUTICS, INC., priority 2022, published 2025)
